Data as given in ChEMBL document CHEMBL1128752, “1,2,3-Trisubstituted cyclohexyl substance P antagonists: significance of the ring nitrogen in piperidine-based NK-1 receptor antagonists” (Bioorg Med Chem Lett, 1995).

The molecules below were run against T1, Substance-P receptor (Homo sapiens, UniProt P25103) (assay: Binding affinity towards Neurokinin -1(NK-1) receptor of human by using [125I]- Tyr8 substance P as a radioligand in CHO cells). Conditions: not given.
Format: cell-based

T1 sequence (P25103 whole entry): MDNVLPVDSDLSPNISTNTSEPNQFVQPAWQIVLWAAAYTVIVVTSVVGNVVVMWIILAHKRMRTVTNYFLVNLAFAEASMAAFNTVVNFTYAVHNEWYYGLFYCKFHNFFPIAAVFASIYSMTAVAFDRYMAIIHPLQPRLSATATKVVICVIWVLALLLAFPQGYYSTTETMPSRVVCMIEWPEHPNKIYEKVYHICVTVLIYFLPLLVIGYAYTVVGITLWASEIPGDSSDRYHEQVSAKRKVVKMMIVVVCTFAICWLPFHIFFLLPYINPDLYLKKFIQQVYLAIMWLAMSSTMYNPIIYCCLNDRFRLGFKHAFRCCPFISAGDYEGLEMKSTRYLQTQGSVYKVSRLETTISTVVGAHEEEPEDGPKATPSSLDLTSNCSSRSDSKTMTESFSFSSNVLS

IC50 [nM] | Compound
1.5 | NC(=O)C[C@H]1CCC[C@H](OCc2cc(C(F)(F)F)cc(C(F)(F)F)c2)[C@@H]1c1ccccc1 (stereo in doubt; 22)
2630 | FC(F)(F)c1cc(CO[C@H]2CCCC[C@H]2c2ccccc2)cc(C(F)(F)F)c1
7 | O=C(C[C@H]1CCC[C@H](OCc2cc(C(F)(F)F)cc(C(F)(F)F)c2)[C@@H]1c1ccccc1)NCc1ccncc1
3 | NC(=O)C[C@H]1CCC[C@H](OCc2cc(C(F)(F)F)cc(C(F)(F)F)c2)[C@@H]1c1ccccc1 (stereo in doubt; 19a)
34 | O=C(NCc1cccnc1)NC[C@H]1CCC[C@H](OCc2cc(C(F)(F)F)cc(C(F)(F)F)c2)[C@@H]1c1ccccc1
≥ 157 | NC(=O)C[C@@H]1CCC[C@@H](OCc2cc(C(F)(F)F)cc(C(F)(F)F)c2)[C@H]1c1ccccc1
6.7 | NC(=O)NC[C@H]1CCC[C@H](OCc2cc(C(F)(F)F)cc(C(F)(F)F)c2)[C@@H]1c1ccccc1
881 | FC(F)(F)c1cc(CO[C@H]2CCCO[C@H]2c2ccccc2)cc(C(F)(F)F)c1
14 | CN1CCC[C@H](OCc2cc(C(F)(F)F)cc(C(F)(F)F)c2)[C@@H]1c1ccccc1
17 | OC(COCc1cc(C(F)(F)F)cc(C(F)(F)F)c1)C(c1ccccc1)c1ccccc1 (configuration not stated)
3.7 | O=C(C[C@H]1CCC[C@H](OCc2cc(C(F)(F)F)cc(C(F)(F)F)c2)[C@@H]1c1ccccc1)NCc1cccnc1

The molecules below were run against T1, Substance-P receptor. Conditions: CHO.
Description: Dissociation constant towards Neurokinin -1(NK-1) receptor of human by using [125I]- Tyr8 substance P as a radioligand in CHO cells

pKa | Compound
8.3 | FC(F)(F)c1cc(CO[C@H]2CCCN[C@H]2c2ccccc2)cc(C(F)(F)F)c1
